System: New Zealand White male rabbits
Test: In vivo anesthetized rabbit model (hypotensive effect: mean arterial pressure and heart rate)
Protocol: Methods: New Zealand White male rabbits (3-4 kg) are anesthetized with sodium pentobarbital (30 mg/kg, i.v.) and a surgical plane of anesthesia is maintained by a continuous infusion of sodium pentobarbital (16 mg/kg/hr) via an ear vein catheter. A tracheotomy is performed through a ventral midline cervical incision and the rabbits are ventilated with 100% oxygen using a positive pressure ventilator. Body temperature is maintained at 38.5° C. using a heating pad connected to a YSI temperature controller model 72 (Yellow Springs Instruments, Yellow Springs, […].). Fluid-filled catheters are placed in the right jugular vein (for intravenous drug administration) and in the right carotid artery for arterial pressure monitoring and for blood gas analysis using a model 248 blood gas analyzer (Bayer Diagnostics, Norwood, Mass.). The ventilator is adjusted as needed to maintain blood pH and pCO2 within normal physiological ranges for rabbits. […] Blood is sampled after dosing or during the infusion of the test compound to determine plasma concentrations of the test compounds.
Thus, dosing volumes were 0.2 ml/kg (Group A) subcutaneously or 5 ml/h (Groups B, C, and D) as an intravenous (IV) infusion. The term “mgA” means the number of milligrams adjusted for active compound (e.g. corrected for salt etc.).
Dosing: Four groups (Groups A, B, C, and D) of two rabbits each were dosed as follows.

[1] = Group C, 16.7 μg/kg/h IV infusion
[2] = Group D, 1.67 μg/kg/h, 4 hour IV infusion

O=C([O-])c1ccc(CCCN2C(=O)CC[C@@H]2CC[C@@H](O)Cc2cccc(C(F)(F)F)c2)s1.[Na+] [Compound 3M sodium salt]
heart rate (HR) (Group B, 167 μg/kg/hr IV infusion for 4 hours, 15 min, mean of 2, baseline 260): 296 beats/minute
mean arterial pressure (MAP) (Group B, 167 μg/kg/hr IV infusion for 4 hours, 30 min, mean of 2, baseline 87): 68 mm Hg
heart rate (HR) (Group B, 167 μg/kg/hr IV infusion for 4 hours, 30 min, mean of 2, baseline 260): 291 beats/minute
mean arterial pressure (MAP) (Group B, 167 μg/kg/hr IV infusion for 4 hours, 60 min, mean of 2, baseline 87): 67 mm Hg
heart rate (HR) (Group B, 167 μg/kg/hr IV infusion for 4 hours, 60 min, mean of 2, baseline 260): 293 beats/minute
mean arterial pressure (MAP) (Group B, 167 μg/kg/hr IV infusion for 4 hours, 90 min, mean of 2, baseline 87): 57 mm Hg
heart rate (HR) (Group B, 167 μg/kg/hr IV infusion for 4 hours, 90 min, mean of 2, baseline 260): 282 beats/minute
mean arterial pressure (MAP) (Group B, 167 μg/kg/hr IV infusion for 4 hours, 120 min, mean of 2, baseline 87): 55 mm Hg
heart rate (HR) (Group B, 167 μg/kg/hr IV infusion for 4 hours, 120 min, mean of 2, baseline 260): 282 beats/minute
mean arterial pressure (MAP) (Group B, 167 μg/kg/hr IV infusion for 4 hours, 150 min, mean of 2, baseline 87): 52 mm Hg
heart rate (HR) (Group B, 167 μg/kg/hr IV infusion for 4 hours, 150 min, mean of 2, baseline 260): 279 beats/minute
mean arterial pressure (MAP) (Group B, 167 μg/kg/hr IV infusion for 4 hours, 180 min, mean of 2, baseline 87): 53 mm Hg
heart rate (HR) (Group B, 167 μg/kg/hr IV infusion for 4 hours, 180 min, mean of 2, baseline 260): 285 beats/minute
mean arterial pressure (MAP) (Group B, 167 μg/kg/hr IV infusion for 4 hours, 210 min, mean of 2, baseline 87): 56 mm Hg
heart rate (HR) (Group B, 167 μg/kg/hr IV infusion for 4 hours, 210 min, mean of 2, baseline 260): 284 beats/minute
mean arterial pressure (MAP) (Group B, 167 μg/kg/hr IV infusion for 4 hours, 240 min, mean of 2, baseline 87): 55 mm Hg
heart rate (HR) (Group B, 167 μg/kg/hr IV infusion for 4 hours, 240 min, mean of 2, baseline 260): 297 beats/minute
effect on heart rate [1]: slight increase in the heart rate
effect on mean arterial pressure [1]: slight decrease in mean arterial pressure
mean arterial pressure (MAP) (Group C, 16.7 μg/kg/hr IV infusion for 4 hours, 5 min, mean of 2, baseline 95): 91 mm Hg
heart rate (HR) (Group C, 16.7 μg/kg/hr IV infusion for 4 hours, 5 min, mean of 2, baseline 291): 289 beats/minute
mean arterial pressure (MAP) (Group C, 16.7 μg/kg/hr IV infusion for 4 hours, 10 min, mean of 2, baseline 95): 86 mm Hg
heart rate (HR) (Group C, 16.7 μg/kg/hr IV infusion for 4 hours, 10 min, mean of 2, baseline 291): 299 beats/minute
mean arterial pressure (MAP) (Group C, 16.7 μg/kg/hr IV infusion for 4 hours, 15 min, mean of 2, baseline 95): 84 mm Hg
heart rate (HR) (Group C, 16.7 μg/kg/hr IV infusion for 4 hours, 15 min, mean of 2, baseline 291): 302 beats/minute
mean arterial pressure (MAP) (Group C, 16.7 μg/kg/hr IV infusion for 4 hours, 30 min, mean of 2, baseline 95): 84 mm Hg
heart rate (HR) (Group C, 16.7 μg/kg/hr IV infusion for 4 hours, 30 min, mean of 2, baseline 291): 306 beats/minute
mean arterial pressure (MAP) (Group C, 16.7 μg/kg/hr IV infusion for 4 hours, 60 min, mean of 2, baseline 95): 85 mm Hg
heart rate (HR) (Group C, 16.7 μg/kg/hr IV infusion for 4 hours, 60 min, mean of 2, baseline 291): 300 beats/minute
mean arterial pressure (MAP) (Group C, 16.7 μg/kg/hr IV infusion for 4 hours, 90 min, mean of 2, baseline 95): 83 mm Hg
heart rate (HR) (Group C, 16.7 μg/kg/hr IV infusion for 4 hours, 90 min, mean of 2, baseline 291): 301 beats/minute
mean arterial pressure (MAP) (Group C, 16.7 μg/kg/hr IV infusion for 4 hours, 120 min, mean of 2, baseline 95): 85 mm Hg
heart rate (HR) (Group C, 16.7 μg/kg/hr IV infusion for 4 hours, 120 min, mean of 2, baseline 291): 304 beats/minute
mean arterial pressure (MAP) (Group C, 16.7 μg/kg/hr IV infusion for 4 hours, 150 min, mean of 2, baseline 95): 85 mm Hg
heart rate (HR) (Group C, 16.7 μg/kg/hr IV infusion for 4 hours, 150 min, mean of 2, baseline 291): 301 beats/minute
mean arterial pressure (MAP) (Group C, 16.7 μg/kg/hr IV infusion for 4 hours, 180 min, mean of 2, baseline 95): 85 mm Hg
heart rate (HR) (Group C, 16.7 μg/kg/hr IV infusion for 4 hours, 180 min, mean of 2, baseline 291): 298 beats/minute
mean arterial pressure (MAP) (Group C, 16.7 μg/kg/hr IV infusion for 4 hours, 210 min, mean of 2, baseline 95): 89 mm Hg
heart rate (HR) (Group C, 16.7 μg/kg/hr IV infusion for 4 hours, 210 min, mean of 2, baseline 291): 307 beats/minute
mean arterial pressure (MAP) (Group C, 16.7 μg/kg/hr IV infusion for 4 hours, 240 min, mean of 2, baseline 95): 89 mm Hg
heart rate (HR) (Group C, 16.7 μg/kg/hr IV infusion for 4 hours, 240 min, mean of 2, baseline 291): 306 beats/minute
effect on heart rate [2]: no significant change
effect on mean arterial pressure [2]: no significant change
mean arterial pressure (MAP) (Group D, 1.67 μg/kg/hr IV infusion for 4 hours, 5 min, mean of 2, baseline 89): 85 mm Hg
heart rate (HR) (Group D, 1.67 μg/kg/hr IV infusion for 4 hours, 5 min, mean of 2, baseline 260): 258 beats/minute
mean arterial pressure (MAP) (Group D, 1.67 μg/kg/hr IV infusion for 4 hours, 10 min, mean of 2, baseline 89): 87 mm Hg
heart rate (HR) (Group D, 1.67 μg/kg/hr IV infusion for 4 hours, 10 min, mean of 2, baseline 260): 260 beats/minute
mean arterial pressure (MAP) (Group D, 1.67 μg/kg/hr IV infusion for 4 hours, 15 min, mean of 2, baseline 89): 85 mm Hg
heart rate (HR) (Group D, 1.67 μg/kg/hr IV infusion for 4 hours, 15 min, mean of 2, baseline 260): 262 beats/minute
mean arterial pressure (MAP) (Group D, 1.67 μg/kg/hr IV infusion for 4 hours, 30 min, mean of 2, baseline 89): 85 mm Hg
heart rate (HR) (Group D, 1.67 μg/kg/hr IV infusion for 4 hours, 30 min, mean of 2, baseline 260): 262 beats/minute
mean arterial pressure (MAP) (Group D, 1.67 μg/kg/hr IV infusion for 4 hours, 60 min, mean of 2, baseline 89): 87 mm Hg
heart rate (HR) (Group D, 1.67 μg/kg/hr IV infusion for 4 hours, 60 min, mean of 2, baseline 260): 255 beats/minute
mean arterial pressure (MAP) (Group D, 1.67 μg/kg/hr IV infusion for 4 hours, 90 min, mean of 2, baseline 89): 87 mm Hg
heart rate (HR) (Group D, 1.67 μg/kg/hr IV infusion for 4 hours, 90 min, mean of 2, baseline 260): 253 beats/minute
mean arterial pressure (MAP) (Group D, 1.67 μg/kg/hr IV infusion for 4 hours, 120 min, mean of 2, baseline 89): 85 mm Hg
heart rate (HR) (Group D, 1.67 μg/kg/hr IV infusion for 4 hours, 120 min, mean of 2, baseline 260): 246 beats/minute
mean arterial pressure (MAP) (Group D, 1.67 μg/kg/hr IV infusion for 4 hours, 150 min, mean of 2, baseline 89): 87 mm Hg
heart rate (HR) (Group D, 1.67 μg/kg/hr IV infusion for 4 hours, 150 min, mean of 2, baseline 260): 246 beats/minute
mean arterial pressure (MAP) (Group D, 1.67 μg/kg/hr IV infusion for 4 hours, 180 min, mean of 2, baseline 89): 87 mm Hg
heart rate (HR) (Group D, 1.67 μg/kg/hr IV infusion for 4 hours, 180 min, mean of 2, baseline 260): 246 beats/minute
mean arterial pressure (MAP) (Group D, 1.67 μg/kg/hr IV infusion for 4 hours, 210 min, mean of 2, baseline 89): 85 mm Hg
heart rate (HR) (Group D, 1.67 μg/kg/hr IV infusion for 4 hours, 210 min, mean of 2, baseline 260): 247 beats/minute
mean arterial pressure (MAP) (Group D, 1.67 μg/kg/hr IV infusion for 4 hours, 240 min, mean of 2, baseline 89): 92 mm Hg
heart rate (HR) (Group D, 1.67 μg/kg/hr IV infusion for 4 hours, 240 min, mean of 2, baseline 260): 257 beats/minute

— patent US7414071B2, “Methods of treatment with selective EP4 receptor agonists” (Pfizer Inc., priority 2002, dated 2008)
